# Where two headings read alike, the source gives them in different places.
# Key:
# Recombinant human HDAC1 = biological target: T1, Recombinant human HDAC1 (Homo sapiens, UniProt Q13547); experiment: Human HDAC enzyme inhibitor Fluor-de-Lys assay, HDAC1; assay type: biochemical
# T1 construct: FLAG (C); made in house
# Outline: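 Fluor-de-Lys format at room temperature (23° C.): compounds titrated 10-point, 1:3, preincubated with HDAC before substrate addition; HDAC1 run at 0.3 nM enzyme with 20 μM BML-KI104. Developer with excess HDAC inhibitor ends the reaction, and trypsin-liberated AMC fluorescence is the read-out.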
# Recombinant human HDAC2 = biological target: T2, Recombinant human HDAC2 (Homo sapiens, UniProt Q92769); experiment: Human HDAC enzyme inhibitor Fluor-de-Lys assay, HDAC2; assay type: biochemical
# T2 construct: Full length human HDAC2-FLAG was expressed in baculovirus infected Sf9 cells; FLAG (C); made in house; host or cells: Sf9 (baculovirus)
# Outline: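 Fluor-de-Lys format at room temperature (23° C.): compounds titrated 10-point, 1:3, preincubated with HDAC before substrate addition. Developer with excess HDAC inhibitor ends the reaction, and trypsin-liberated AMC fluorescence is the read-out.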
# KARN cells (Jurkat 2C4) = experiment: cells; assay type: cell-based; details: Homo sapiens, Jurkat
# Outline: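 Jurkat 2C4 (KARN) cells dosed with test compounds up to 40 μM final, 0.4% DMSO, overnight at 5% CO2; luciferase read by Steady-Glo luminescence after 10 min at room temperature. DMSO set as 0% and 2 μM SAHA as 100% induction; 4-parameter fit of percent activation.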
# [1] = biological target: T3, Recombinant human HDAC3/SMRT heterodimer (Homo sapiens, UniProt O15379); experiment: Human HDAC enzyme inhibitor Fluor-de-Lys assay, HDAC3/SMRT; assay type: biochemical
# T3 construct: FLAG (C); made in house
# [2] = recombinant human HDAC1, Fluor-de-Lys assay
# [3] = recombinant human HDAC2, Fluor-de-Lys assay
# [4] = read-out: Karn EC50 (nM) 0.1% NHS, 0.1% normal human serum, luciferase induction, 100% = 2 μM SAHA
# [5] = read-out: Karn EC50 (nM) 5% NHS, 5% normal human serum, luciferase induction, 100% = 2 μM SAHA
# [6] = read-out: Karn EC50 (nM) 0.1% NHS, 0.1% normal human serum
# [7] = read-out: Karn EC50 (nM) 5% NHS, 5% normal human serum
# T3 sequence (O15379 whole entry): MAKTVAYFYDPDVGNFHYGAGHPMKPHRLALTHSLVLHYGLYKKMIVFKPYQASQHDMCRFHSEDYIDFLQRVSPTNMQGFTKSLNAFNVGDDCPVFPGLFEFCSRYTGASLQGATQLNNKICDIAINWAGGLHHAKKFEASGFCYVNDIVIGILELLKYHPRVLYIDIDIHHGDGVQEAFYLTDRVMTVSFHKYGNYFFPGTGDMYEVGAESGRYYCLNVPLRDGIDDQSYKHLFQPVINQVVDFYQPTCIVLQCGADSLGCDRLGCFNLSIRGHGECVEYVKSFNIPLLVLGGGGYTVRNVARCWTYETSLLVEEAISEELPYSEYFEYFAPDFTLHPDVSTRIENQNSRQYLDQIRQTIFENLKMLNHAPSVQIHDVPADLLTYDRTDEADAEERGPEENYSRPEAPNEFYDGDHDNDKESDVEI
# T3 sequence (Q9Y618 1-899 partner limits assumed): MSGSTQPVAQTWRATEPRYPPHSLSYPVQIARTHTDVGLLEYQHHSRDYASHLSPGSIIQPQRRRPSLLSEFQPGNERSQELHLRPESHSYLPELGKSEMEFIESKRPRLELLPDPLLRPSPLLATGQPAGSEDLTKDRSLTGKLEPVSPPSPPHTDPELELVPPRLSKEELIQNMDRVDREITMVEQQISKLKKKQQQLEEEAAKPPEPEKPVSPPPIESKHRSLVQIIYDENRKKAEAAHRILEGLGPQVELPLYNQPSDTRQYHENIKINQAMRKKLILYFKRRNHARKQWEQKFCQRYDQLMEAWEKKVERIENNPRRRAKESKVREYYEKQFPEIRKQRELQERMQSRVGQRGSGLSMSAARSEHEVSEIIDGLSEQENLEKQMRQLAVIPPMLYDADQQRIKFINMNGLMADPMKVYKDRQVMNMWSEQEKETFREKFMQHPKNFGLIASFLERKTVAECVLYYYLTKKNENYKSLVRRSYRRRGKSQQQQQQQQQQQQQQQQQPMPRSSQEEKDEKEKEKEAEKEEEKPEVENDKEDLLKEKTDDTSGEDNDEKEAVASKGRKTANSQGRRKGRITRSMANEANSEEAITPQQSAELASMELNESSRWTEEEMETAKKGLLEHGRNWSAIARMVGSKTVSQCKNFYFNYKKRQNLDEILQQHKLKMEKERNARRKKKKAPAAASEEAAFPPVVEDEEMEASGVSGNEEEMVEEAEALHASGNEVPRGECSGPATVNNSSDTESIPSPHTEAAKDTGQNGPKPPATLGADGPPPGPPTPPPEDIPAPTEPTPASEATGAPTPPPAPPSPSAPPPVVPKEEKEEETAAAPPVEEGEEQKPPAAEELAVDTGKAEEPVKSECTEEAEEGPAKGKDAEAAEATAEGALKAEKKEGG
# T2 sequence (Q92769 whole entry): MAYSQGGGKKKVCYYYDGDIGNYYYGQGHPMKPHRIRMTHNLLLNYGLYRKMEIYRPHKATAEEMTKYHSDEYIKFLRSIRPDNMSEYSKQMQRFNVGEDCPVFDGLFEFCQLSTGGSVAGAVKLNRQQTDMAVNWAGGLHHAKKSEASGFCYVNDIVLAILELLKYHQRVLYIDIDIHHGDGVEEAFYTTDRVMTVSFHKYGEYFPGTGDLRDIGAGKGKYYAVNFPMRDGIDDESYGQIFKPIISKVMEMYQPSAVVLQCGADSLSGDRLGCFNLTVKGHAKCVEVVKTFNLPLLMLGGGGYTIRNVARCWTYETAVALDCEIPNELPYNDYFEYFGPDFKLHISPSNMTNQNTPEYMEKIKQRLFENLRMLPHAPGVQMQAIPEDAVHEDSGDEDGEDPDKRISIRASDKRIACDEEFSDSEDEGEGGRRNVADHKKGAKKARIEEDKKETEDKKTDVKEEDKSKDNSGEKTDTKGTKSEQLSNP
# T1 sequence (Q13547 whole entry): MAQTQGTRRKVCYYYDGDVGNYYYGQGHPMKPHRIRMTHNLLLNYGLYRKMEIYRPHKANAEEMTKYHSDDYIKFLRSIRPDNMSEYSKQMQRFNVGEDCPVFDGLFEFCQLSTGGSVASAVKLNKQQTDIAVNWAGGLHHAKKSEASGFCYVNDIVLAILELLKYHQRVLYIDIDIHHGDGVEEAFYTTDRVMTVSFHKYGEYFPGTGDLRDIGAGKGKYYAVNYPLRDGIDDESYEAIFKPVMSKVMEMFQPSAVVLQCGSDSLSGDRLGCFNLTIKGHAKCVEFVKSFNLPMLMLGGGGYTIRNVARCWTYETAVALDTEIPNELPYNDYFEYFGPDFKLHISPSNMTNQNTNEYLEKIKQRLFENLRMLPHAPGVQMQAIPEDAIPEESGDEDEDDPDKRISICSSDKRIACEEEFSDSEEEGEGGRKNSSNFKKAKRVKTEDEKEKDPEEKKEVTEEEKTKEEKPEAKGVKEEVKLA
Compound,IC50 (Recombinant human HDAC1; [2]) [nM],IC50 (Recombinant human HDAC2; [3]) [nM],EC50 (KARN cells (Jurkat 2C4); [4]) [nM],EC50 (KARN cells (Jurkat 2C4); [5]) [nM],"IC50 ([1]; recombinant human HDAC3/SMRT, Fluor-de-Lys assay) [nM]",IC50 (Recombinant human HDAC1) [nM],IC50 (Recombinant human HDAC2) [nM],IC50 [1] [nM],EC50 (KARN cells (Jurkat 2C4); [6]) [nM],EC50 (KARN cells (Jurkat 2C4); [7]) [nM]
"CCC(=O)CCCCC[C@H](NC(=O)[C@H]1CC12CN(C)C2)c1ncc(-c2cc3ccc(C)nc3cc2OC)o1 (single isomer, unassigned) [Compound 230]",0.4,2.7,88,83,,,,,,
"CCC(=O)CCCCC[C@H](NC(=O)[C@@H]1CC12CN(C)C2)c1ncc(-c2cc3ccc(C)nc3cc2OC)o1 (single isomer, unassigned) [Compound 231]",1.26,19.2,589,535,,,,,,
"CCC(=O)CCCCC[C@H](NC(=O)C1CC12CC1CCC(C2)N1C)c1ncc(-c2ccc3ncccc3c2)[nH]1 (single isomer, unassigned) [Compound 242]",3.94,16.1,1690,2770,< 1.5,,,,,
"CCC(=O)CCCCC[C@H](NC(=O)[C@H]1CC12CCN(C)CC2)c1ncc(-c2ccc3nc(C(F)(F)F)ccc3c2)o1 [Compound 78, (1S)-6-methyl-N-[(1S)-7-oxo-1-{5-[2-(trifluoromethyl)quinolin-6-yl]-1,3-oxazol-2-yl}nonyl]-6-azaspiro[2.5]octane-1-carboxamide]",,,,,,18.3,62.3,13.8,911,1440
CCC(=O)CCCCC[C@H](NC(=O)[C@H]1CC12CCN(C)CC2)c1ncc(-c2ccc3nc(C)ccc3c2)o1 [Compound 80],,,,,,2.89,14.8,2.96,435,501
"CCC(=O)CCCCC[C@H](NC(=O)[C@H]1CC12CCN(C)CC2)c1nc(Cl)c(-c2cc3ccccc3nc2O)[nH]1 [Compound 81, (1S)—N-{(1S)-1-[4-chloro-5-(2-hydroxyquinolin-3-yl)-1H-imidazol-2-yl]-7-oxononyl}-6-methyl-6-azaspiro[2.5]octane-1-carboxamide]",,,,,,88.2,337,69,6430,10700
CCC(=O)CCCCC[C@H](NC(=O)[C@H]1CC12CCN(C(C)C)CC2)c1ncc(-c2ccc3nc(C)ccc3c2)[nH]1 [Compound 83],,,,,,< 1.5,< 1.5,< 1.5,64,60
CN1CCC2(CC1)C[C@@H]2C(=O)N[C@@H](CCCCCC(=O)CC1CC1)c1ncc(-c2ccc(F)cc2)[nH]1 [Compound 84],,,,,,9.95,63.8,16.3,632,1180
CCC(=O)CCCCC[C@H](NC(=O)[C@H]1CC12CCN(C)CC2)c1ncc(-c2coc3ccccc3c2=O)[nH]1 [Compound 86],,,,,,15.9,64.8,12.1,1060,1510
CCC(=O)CCCCC[C@H](NC(=O)[C@H]1CC12CCN(C)CC2)c1ncc(-c2ccc3ncoc3c2)[nH]1 [Compound 89],,,,,,3.63,,2.27,219,237
CCC(=O)CCCCC[C@H](NC(=O)[C@H]1CC12CCN(C)CC2)c1ncc(-c2ccc3cc(C#N)ccc3c2)[nH]1 [Compound 90],,,,,,0.28,1.6,0.38,52,33
CCC(=O)CCCCC[C@H](NC(=O)[C@H]1CC12CCN(C)CC2)c1[nH]c(-c2ccc(F)cc2)nc1Cl [Compound 91],,,,,,4.38,14.2,3.26,207,274
CCC(=O)CCCCC[C@H](NC(=O)[C@H]1CC12CCN(CC)CC2)c1ncc(-c2ccc(-c3nccs3)cc2)o1 [Compound 93],,,,,,7.15,25.6,5.76,688,736
CCC(=O)CCCCC[C@H](NC(=O)[C@H]1CC12CCN(C(C)C)CC2)c1ncc(-c2cc3ccccc3nc2OC)o1 [Compound 99],,,,,,3.55,17.8,,162,310
CCC(=O)CCCCC[C@H](NC(=O)C1CC12CCN(CC)CC2)c1nc(-c2ccc(F)cc2)[nH]c1-c1cnn(C)c1 (some centres unmarked) [Compound 248],5.84,24.1,183,429,,,,,,
CCC(=O)CCCCC[C@H](NC(=O)C1CC12CCN(CC)CC2)c1nc(-c2ccc(F)cc2)[nH]c1-c1ccsc1 (some centres unmarked) [Compound 250],80.7,192,3730,4100,,,,,,
CCC(=O)CCCCC[C@H](NC(=O)[C@H]1CC12CCN(C)CC2)c1ncc(-c2cnc(-n3cc(C)cn3)nc2)[nH]1 [Compound 257],64.8,185,8080,10600,,,,,,
CCC(=O)CCCCC[C@H](NC(=O)[C@H]1CC12CCN(C)CC2)c1ncc(-c2ccc(C(=O)NC3CCOC3)cc2)[nH]1 (some centres unmarked) [Compound 258],7.82,23.8,7440,7840,,,,,,
CCC(=O)CCCCC[C@H](NC(=O)[C@H]1CC12CCN(C)CC2)c1ncc(-c2cnc3cccnc3c2)[nH]1 [Compound 259],23.8,95,7930,8180,,,,,,
CCC(=O)CCCCC[C@H](NC(=O)[C@H]1CC12CCN(C)CC2)c1ncc(-c2ccc(-n3nc(C)cc3C)cc2)[nH]1 [Compound 260],13.1,52.5,717,913,,,,,,
CCC(=O)CCCCC[C@H](NC(=O)[C@H]1CC12CCN(C)CC2)c1ncc(-c2ccnc(N3CCOCC3)c2F)[nH]1 [Compound 261],25.2,102,1380,1500,,,,,,
CCC(=O)CCCCC[C@H](NC(=O)[C@H]1CC12CCN(C)CC2)c1ncc(-c2ccc(-c3cccnc3)nc2)[nH]1 [Compound 262],4.42,18.8,773,851,,,,,,
CCC(=O)CCCCC[C@H](NC(=O)[C@H]1CC12CCN(C)CC2)c1ncc(-c2cn(C)c3ccccc23)[nH]1 [Compound 264],1.79,5.9,78,143,,,,,,
CCOc1ncc(-c2cnc([C@H](CCCCCC(=O)CC)NC(=O)[C@H]3CC34CCN(C)CC4)[nH]2)cn1 [Compound 266],155,372,9900,13800,,,,,,
CCC(=O)CCCCC[C@H](NC(=O)[C@H]1CC12CCN(C)CC2)c1ncc(-c2ccc(C)nc2OC)[nH]1 [Compound 268],3.89,17.2,205,330,,,,,,
CCC(=O)CCCCC[C@H](NC(=O)[C@@H]1CC12CCN(C)CC2)c1nnc(-c2cc3ccccc3nc2OC)o1 [Compound 305],47.3,160,2200,3090,,,,,,
CCC(=O)CCCCC[C@H](NC(=O)[C@H]1CC12CCN(C)CC2)c1nnc(-c2cc3ccccc3nc2OC)o1 [Compound 306],12.9,58.2,690,691,,,,,,
CCC(=O)CCCCC[C@H](NC(=O)CC1CC2(C1)CN(C)C2)c1ncc(-c2cc3ccccc3nc2OC)[nH]1 [Compound 314],1.03,5.1,131,811,,,,,,

# From patent US12590099B2, “Inhibitors of histone deacetylase useful for the treatment or prevention of HIV infection” (Merck Sharp & Dohme LLC, priority 2018, dated 2026)
